Patent publication US12077503B2, “Substituted cyclic amides and their use as herbicides” (FMC CORPORATION, priority 2015, dated 2024)

Legend:
Type in all cases: in vivo
[1] = test system: barnyardgrass (Echinochloa crus-galli); test: Test B flooded paddy test; conditions: Echinochloa crus-galli, 250 g ai/ha, Flood; 0 to 100 scale where 0 is no effect and 100 is complete control; read-out: Barnyardgrass plant response rating
Outline: (§1)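 Rating scale 0–100 (visual, vs untreated controls) after a 13–15 d greenhouse period; application to the flood layer, 3 cm above soil and maintained; plants at 2-leaf stage when treated.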

[2] = test system: sedge, umbrella (small-flower umbrella sedge, Cyperus difformis); test: Test B flooded paddy test; conditions: Cyperus difformis, 250 g ai/ha, Flood; 0 to 100 scale where 0 is no effect and 100 is complete control; read-out: Sedge, Umbrella plant response rating
Outline: as §1

[3] = test system: ducksalad (Heteranthera limosa); test: Test B flooded paddy test; conditions: Heteranthera limosa, 250 g ai/ha, Flood; 0 to 100 scale where 0 is no effect and 100 is complete control; read-out: Ducksalad plant response rating
Outline: as §1

rice (Oryra sativa) = test: Test B flooded paddy test; conditions: Oryza sativa, 250 g ai/ha, Flood; 0 to 100 scale where 0 is no effect and 100 is complete control; read-out: Rice plant response rating
Outline: as §1

[4] = test system: barnyardgrass (Echinochloa crus-galli); test: Test A preemergence; conditions: Echinochloa crus-galli, pre-emergence, 240 h, 0 to 100 scale where 0 is no effect and 100 is complete control, read-out: Barnyardgrass plant response rating
Outline: (§2)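 Treatment is preemergence as a directed soil spray after planting, or postemergence at the one- to two-leaf stage, with test chemical in a non-phytotoxic solvent mixture plus surfactant. Plants stay in the greenhouse about 10 d before visual injury scoring on a 0 to 100 scale versus untreated controls.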

[5] = test system: giant foxtail (Setaria faberii); test: Test A preemergence; conditions: Setaria faberi, pre-emergence, 240 h, 0 to 100 scale where 0 is no effect and 100 is complete control, read-out: Foxtail, Giant plant response rating
Outline: as §2

[6] = test system: pigweed (Amaranthus retroflexus); test: Test A preemergence; conditions: Amaranthus retroflexus, pre-emergence, 240 h, 0 to 100 scale where 0 is no effect and 100 is complete control, read-out: Pigweed plant response rating
[7] = test system: ragweed (common ragweed, Ambrosia elatior); test: Test A preemergence; conditions: Ambrosia artemisiifolia, pre-emergence, 240 h, 0 to 100 scale where 0 is no effect and 100 is complete control, read-out: Ragweed plant response rating
Outline: as §2

[8] = test system: ryegrass, Italian (Italian ryegrass, Lolium multiflorum); test: Test A preemergence; conditions: Lolium multiflorum, pre-emergence, 240 h, 0 to 100 scale where 0 is no effect and 100 is complete control, read-out: Ryegrass, Italian plant response rating
Outline: as §2

Kochia (Kochia scoparia) [9] = test: Test A preemergence; conditions: Bassia scoparia, pre-emergence, 240 h, 0 to 100 scale where 0 is no effect and 100 is complete control, read-out: Kochia plant response rating
Outline: as §2

corn (Zea mays) = test: Test A postemergence; conditions: Zea mays, post-emergence, 240 h, Postemergence, read-out: Corn plant response rating (0 to 100 scale)
Outline: as §2

[10] = test system: barnyardgrass (Echinochloa crus-galli); test: Test A postemergence; conditions: Echinochloa crus-galli, post-emergence, 240 h, Postemergence
Outline: as §2

[11] = test system: giant foxtail (Setaria faberii); test: Test A postemergence; conditions: Setaria faberi, post-emergence, 240 h, Postemergence, read-out: Foxtail, Giant plant response rating (0 to 100 scale)
Outline: as §2

[12] = test system: blackgrass (Alopecurus myosuroides); test: Test A postemergence; conditions: Alopecurus myosuroides, post-emergence, 240 h, Postemergence, read-out: Blackgrass plant response rating (0 to 100 scale)
Outline: as §2

[13] = test system: wheat (Triticum aestivum); test: Test A postemergence; conditions: Triticum aestivum, post-emergence, 240 h, Postemergence, read-out: Wheat plant response rating (0 to 100 scale)
Outline: as §2

[14] = test system: pigweed (Amaranthus retroflexus); test: Test A postemergence; conditions: Amaranthus retroflexus, post-emergence, 240 h, Postemergence, read-out: Pigweed plant response rating (0 to 100 scale)
Outline: as §2

[15] = test system: Galium (catchweed bedstraw, Galium aparine); test: Test A postemergence; conditions: Galium, post-emergence, 240 h, Postemergence, read-out: Galium plant response rating (0 to 100 scale)
Outline: as §2

[16] = test system: ragweed (common ragweed, Ambrosia elatior); test: Test A postemergence; conditions: Ambrosia artemisiifolia, post-emergence, 240 h, Postemergence, read-out: Ragweed plant response rating (0 to 100 scale)
Outline: as §2

[17] = test system: ryegrass, Italian (Italian ryegrass, Lolium multiflorum); test: Test A postemergence; conditions: Lolium multiflorum, post-emergence, 240 h, Postemergence, read-out: Ryegrass, Italian plant response rating (0 to 100 scale)
Outline: as §2

Kochia (Kochia scoparia) [18] = test: Test A postemergence; conditions: Bassia scoparia, post-emergence, 240 h, Postemergence, read-out: Kochia plant response rating (0 to 100 scale)
Outline: as §2

[19] = 125 g ai/ha, preemergence, visual injury rating, approximately 10 d
[20] = 125 g ai/ha, visual rating about 10 d after treatment
[21] = 31 g ai/ha, 0 is no effect, 100 is complete control

Compound `CN1C[C@H](c2csc3c2CCC3)[C@@H](C(=O)Nc2cccc(F)c2F)C1=O` [Compound 1278] has a pest or weed control at 250 g/ha [1] of 60%, a pest or weed control at 250 g/ha [2] of 0% and a pest or weed control at 250 g/ha [3] of 90%. It also gave a pest or weed control at 250 g/ha (rice (Oryra sativa)) of 35%, a pest or weed control at 31 g/ha ([4]; 31 g ai/ha, Preemergence) of 80% and a pest or weed control at 125 g/ha [4, 19] of 100%. The pest or weed control at 31 g/ha ([5]; 31 g ai/ha, Preemergence) was 100%, the pest or weed control at 125 g/ha [5, 19] was 100% and the pest or weed control at 31 g/ha ([6]; 31 g ai/ha, Preemergence) was 0%. The pest or weed control at 125 g/ha [6, 19] was 90%, the pest or weed control at 31 g/ha ([7]; 31 g ai/ha, Preemergence) was 20% and the pest or weed control at 125 g/ha [7, 19] was 100%. It also gave a pest or weed control at 31 g/ha ([8]; 31 g ai/ha, Preemergence) of 0%, a pest or weed control at 125 g/ha [8, 19] of 30% and a pest or weed control at 31 g/ha (Kochia (Kochia scoparia) [9]; 31 g ai/ha, Preemergence) of 30%. It also gave a pest or weed control at 125 g/ha (Kochia (Kochia scoparia) [9]; [19]) of 30%, a plant injury at 125 g/ha (corn (Zea mays); [20]) of 0% and a plant injury at 31 g/ha (corn (Zea mays); [21]) of 0%. The pest or weed control at 125 g/ha ([10]; 125 g ai/ha, visual rating about 10 d after treatment, read-out: Barnyardgrass plant response rating (0 to 100 scale, 0 no effect, 100 complete control)) was 100%, the pest or weed control at 31 g/ha ([10]; 31 g ai/ha, 0 is no effect, 100 is complete control, read-out: Barnyardgrass plant response rating (0 to 100 scale)) was 70% and the pest or weed control at 125 g/ha [11, 20] was 80%. The pest or weed control at 31 g/ha [11, 21] was 50%, the pest or weed control at 125 g/ha [12, 20] was 0% and the pest or weed control at 31 g/ha [12, 21] was 0%. It also gave a plant injury at 125 g/ha [13, 20] of 0%, a plant injury at 31 g/ha [13, 21] of 0% and a pest or weed control at 125 g/ha [14, 20] of 0%. For the same compound, the pest or weed control at 31 g/ha [14, 21] was 0%, the pest or weed control at 125 g/ha [15, 20] was 0% and the pest or weed control at 31 g/ha [15, 21] was 0%. For the same compound, the pest or weed control at 125 g/ha [16, 20] was 30%, the pest or weed control at 31 g/ha [16, 21] was 0% and the pest or weed control at 125 g/ha [17, 20] was 0%. The pest or weed control at 31 g/ha [17, 21] was 0%, the pest or weed control at 125 g/ha (Kochia (Kochia scoparia) [18]; [20]) was 20% and the pest or weed control at 31 g/ha (Kochia (Kochia scoparia) [18]; [21]) was 0%.
